One assay deals with T1, AQ STING (G230A-R293Q) (Homo sapiens, UniProt Q86WV6, G230A/H232R/R293Q).
T1 construct: truncated human WT STING or AQ STING (amino acid residues 140-343); 8xHis (N, cleaved yes); SUMO (N, cleaved yes); made in house; host or cells: E. coli Rosetta-gami B (DE3)
Nature of the assay: Differential scanning fluorimetry (DSF) with AQ STING. It is filed as binding. The settings on record: thermal shift, truncated human AQ STING 0.1 mg/ml, 150 μM CDN; read-out: DSF ΔTm AQ STING. An excerpt: (§1) Both WT and AQ human STING (G230A-R^293Q) cDNA were amplified by the use of PCR (Phusion® High-Fidelity DNA Polymerase, cat. # M0530S, NEB, Ipswich, USA) using oligonucleotides hSTING140-BamH-For ([…]) (SEQ ID NO:5) and hSTING379-Not-Rev3 ([…]) (SEQ ID NO:6) from pUNOI-hSTING-WT (cat. # punol-hstingwt, InvivoGen, San Diego, USA) and pUNO1-hSTING-HAQ plasmids (punol-hsting-haq, InvivoGen, San Diego, USA). Purified PCR products were cleaved with restriction enzymes BamHI (cat. # R^0136S, NEB, Ipswich, USA) and NotI (cat. # R^0189S, NEB, Ipswich, USA) and cloned into the pSUMO vector linearized with the identical enzymes. Plasmid pSUMO was created by introducing 8-His-SUMO sequence between NdeI and BamHI sites of pHis-parallel2 plasmid (Clontech, Moutain View, USA). pSUMO-STING WT or pSUMO-STING AQ plasmids thus encoded truncated human WT STING or AQ STING (amino acid residues 140-343) with N-terminal 8×His and SUMO tag.
(§2) The recombinant WT STING and AQ STING proteins were overexpressed in Rosetta-gami B (DE3) competent cells (cat. #71136-3, Merck Millipore, Billerica, USA). Bacterial pellets were re-suspended in ice-cold lysis buffer containing 50 mmol·l^−1 TrisCl (cat. # T1503, Sigma Aldrich, Czech Republic) pH 8.0, 300 mmol·l^−1 NaCl, 3 mmol·l^−1 (3-mercaptoethanol (cat. # M6250, Sigma Aldrich, Czech Republic), 10% glycerol (cat. #G5516, Sigma Aldrich, Czech Republic) and 20 mmol·l^−1 imidazole (cat. #15513, Sigma Aldrich, Czech Republic) using Dounce homogenizer. DNase I (cat. # D5025, Sigma Aldrich, Czech Republic) and RNase A (cat. # R^6513, Sigma Aldrich, Czech Republic) were added (final concentration 50 μg/ml) together with MgCl2 (final concentration 5 mmol·l^−1) to the homogenate and bacteria were lysed using French Press G-M™ High-Pressure Cell Press Homogenizer (1500 psi, 3 cycles). Lysate was spun 30,000 g for 20 minutes and supernatant was gently stirred with Ni-NTA resin (cat. #745400.25 Macherey-Nagel, Duren, Germany) for 30 minutes. The resin was poured into a chromatography column, washed with 50 ml buffer A (50 mmol·l^−1 TrisCl (pH 8.0), 800 mmol·l^−1 NaCl, 3 mmol·l^−1β-mercaptoethanol; 10% glycerol; 20 mmol·l^−1 imidazole) and 8-His-SUMO tagged STING proteins were eluted with 15 ml buffer A containing 300 mmol·l^−1 imidazole. The eluted proteins were cleaved with recombinant SUMO protease (80 pig/ml of protein solution, cat. #12588018, ThermoFisher, Waltham, USA). The proteins were further purified by size exclusion chromatography using HiLoad 16/60 Superdex 75 (cat. #28989333, GE Healthcare Bio-Sciences, Pittsburgh, USA) in 50 mmol·l^−1 Tris C1 buffer pH 7.4 containing 150 mmol·l^−1 NaCl, and 10% glycerol. Proteins were concentrated with Amicon® Ultra-15 10 K device (cat. # UFC901008, Merck Millipore, Billerica, USA) and flash frozen in liquid N2.
(§3) WT and AQ allelic forms of STING protein were diluted to the final concentration 0.1 mg/ml in 100 mmol·l^−1 TrisCl buffer pH 7.4 containing, 150 mmol·l^−1 NaCl, 1:500 SYPRO Orange (cat. # S6650, ThermoFisher, Waltham, USA) and 150 μM CDN or water. 20 μL solutions of the reaction mixtures were pipetted in triplicates into 96 well optical reaction plates and thermal denaturation of samples were performed on real time PCR cycler (LightCycler® 480 Instrument II—Roche, Basel, Switzerland). The first derivative of the thermal denaturation curves was performed to calculate denaturing temperatures of STING-CDN complexes and STING apoproteins. The thermal shift for each CDN was calculated by subtracting the average denaturing temperature of STING apoprotein from the average denaturing temperature of STING CDN complex.
Background: In DSF a fluorescence change marks the thermal transition of the protein.

The target of a further assay is WT STING (Homo sapiens, UniProt Q86WV6, H232R). Briefly: Differential scanning fluorimetry (DSF) with WT STING. Type of assay: binding. More on the design: truncated human WT STING or AQ STING (amino acid residues 140-343); 8xHis (N, cleaved yes); SUMO (N, cleaved yes); made in house; host or cells: E. coli Rosetta-gami B (DE3). As to conditions: thermal shift, truncated human WT STING 0.1 mg/ml, 150 μM CDN; read-out: DSF ΔTm WT STING.
Source text: as §1, §2, §3

SMILES strings stand for the structures.

WT STING, sequence (Q86WV6 140-343 H232R): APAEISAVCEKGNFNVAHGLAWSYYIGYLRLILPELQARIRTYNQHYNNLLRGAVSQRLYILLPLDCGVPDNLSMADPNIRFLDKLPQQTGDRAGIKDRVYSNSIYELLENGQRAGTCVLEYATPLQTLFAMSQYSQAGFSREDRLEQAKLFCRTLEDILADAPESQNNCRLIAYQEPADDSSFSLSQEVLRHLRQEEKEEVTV
T1 sequence (Q86WV6 140-343 G230A/H232R/R293Q): as the sequence (Q86WV6 140-343 H232R) above, with G91A, R154Q counted along it

As to `CSc1ncnc2c1ncn2[C@@H]1O[C@@H]2COP(=O)(O)OC3C(O)[C@@H](COP(=O)(O)OC2C1O)C[C@H]3n1cnc2c(=O)[nH]c(N)nc21` (stereo partly drawn) [Compound 110, (6R,8R,15R,17R)-17-(2-amino-6-oxo-6,9-dihydro-1H-purin-9-yl)-3,9,12,18-tetrahydroxy-8-[6-(methylsulfanyl)-9H-purin-9-yl]-2,4,7,11,13-pentaoxa-3λ^5,12λ^5-diphosphatricyclo[13.2.1.0^6,10]octadecane-3,12-dione], the thermal shift (ΔTm) at 150 µM came out at 10.1 °C on AQ STING (G230A-R293Q) and 4.9 °C on WT STING.
For `Nc1nc2c(ncn2[C@@H]2C[C@@H]3COP(=O)(O)OC4C(F)[C@H](n5cnc6c(N)nc(F)nc65)O[C@@H]4COP(=O)(O)OC2C3O)c(=O)[nH]1` (stereo partly drawn) [Compound 111, (6R,8R,15R,17R)-8-(6-amino-2-fluoro-9H-purin-9-yl)-17-(2-amino-6-oxo-6,9-dihydro-1H-purin-9-yl)-9-fluoro-3,12,18-trihydroxy-2,4,7,11,13-pentaoxa-3λ^5,12λ^5-diphosphatricyclo[13.2.1.0^6,10]octadecane-3,12-dione] the same measures were 13 °C and 5.1 °C.
For `CSc1nc(N)nc2c1ncn2[C@@H]1O[C@@H]2COP(=O)(O)OC3C(O)[C@@H](COP(=O)(O)OC2C1O)C[C@H]3n1cnc2c(=O)[nH]c(N)nc21` (stereo partly drawn) [Compound 112, (6R,8R,15R,17R)-8-[2-amino-6-(methylsulfanyl)-9H-purin-9-yl]-17-(2-amino-6-oxo-6,9-dihydro-1H-purin-9-yl)-3,9,12,18-tetrahydroxy-2,4,7,11,13-pentaoxa-3λ^5,12λ^5-diphosphatricyclo[13.2.1.0^6,10]octadecane-3,12-dione] the same measures were 4.7 °C and 0.6 °C.
For `Cc1cn([C@@H]2O[C@@H]3COP(=O)(O)OC4C(O)[C@@H](COP(=O)(O)OC3C2O)C[C@H]4n2cnc3c(=O)[nH]c(N)nc32)c2ncnc(N)c12` (stereo partly drawn) [Compound 113, (6R,8R,15R,17R)-8-{4-amino-5-methyl-7H-pyrrolo[2,3-d]pyrimidin-7-yl}-17-(2-amino-6-oxo-6,9-dihydro-1H-purin-9-yl)-3,9,12,18-tetrahydroxy-2,4,7,11,13-pentaoxa-3λ^5,12λ^5-diphosphatricyclo[13.2.1.0^6,10]octadecane-3,12-dione] the same measures were 11.6 °C and 6 °C.
Take `C#Cc1cn([C@@H]2O[C@@H]3COP(=O)(O)OC4C(O)[C@@H](COP(=O)(O)OC3C2O)C[C@H]4n2cnc3c(=O)[nH]c(N)nc32)c2ncnc(N)c12` (stereo partly drawn) [Compound 114, (6R,8R,15R,17R)-8-{4-amino-5-ethynyl-7H-pyrrolo 2,3-dlpyrimidin-7-yl}-17-(2-amino-6-oxo-6,9-dihydro-1H-purin-9-yl)-3,9,12,18-tetrahydroxy-2,4,7,11,13-pentaoxa-3λ^5,12λ^5-diphosphatricyclo[13.2.1.0^6,10]octadecane-3,12-dione]: the ΔTm at 150 µM worked out at 10.3 °C at AQ STING (G230A-R293Q) and 4.4 °C on WT STING.
For `Nc1nc2c(ncn2[C@@H]2C[C@@H]3COP(=O)(O)OC4C(O)[C@H](n5cnc6c(Cl)ncnc65)O[C@@H]4COP(=O)(O)OC2C3O)c(=O)[nH]1` (stereo partly drawn) [Compound 115, (6R,8R,15R,17R)-17-(2-amino-6-oxo-6,9-dihydro-1H-purin-9-yl)-8-(6-chloro-9H-purin-9-yl)-3,9,12,18-tetrahydroxy-2,4,7,11,13-pentaoxa-3λ^5,12λ^5-diphosphatricyclo[13.2.1.0^6,10]octadecane-3,12-dione] the same measures were 14.2 °C and 6.3 °C.
For `Nc1nc2c(ncn2[C@@H]2C[C@@H]3COP(=O)(O)OC4C(O)[C@H](n5nnc6c(N)ncnc65)O[C@@H]4COP(=O)(O)OC2C3O)c(=O)[nH]1` (stereo partly drawn) [Compound 116, (6R,8R,15R,17R)-8-{7-amino-3H-[1,2,3]triazolo[4,5-d]pyrimidin-3-yl}-17-(2-amino-6-oxo-6,9-dihydro-1H-purin-9-yl)-3,9,12,18-tetrahydroxy-2,4,7,11,13-pentaoxa-3λ^5,12λ^5-diphosphatricyclo[13.2.1.0^6,10]octadecane-3,12-dione] the same measures were 8.9 °C and 0.9 °C.
For `Nc1nc(N)c2ncn([C@@H]3O[C@@H]4COP(=O)(O)OC5C(O)[C@@H](COP(=O)(O)OC4C3F)C[C@H]5n3cnc4c(=O)[nH]c(N)nc43)c2n1` (stereo partly drawn) [Compound 117, (6R,8R,15R,17R)-17-(2-amino-6-oxo-6,9-dihydro-1H-purin-9-yl)-8-(2,6-diamino-9H-purin-9-yl)-9-fluoro-3,12,18-trihydroxy-2,4,7,11,13-pentaoxa-3λ^5,12λ^5-diphosphatricyclo[13.2.1.0^6,10]octadecane-3,12-dione] the same measures were 17 °C and 9.4 °C.
`Nc1nc2c(ncn2[C@@H]2C[C@@H]3COP(=O)(S)OC4C(O)[C@H](n5cnc6c(N)ncnc65)O[C@@H]4COP(=O)(O)OC2C3O)c(=O)[nH]1` (stereo partly drawn) [Compound 118, (6R,8R,15R,17R)-17-(2-amino-6-oxo-6,9-dihydro-1H-purin-9-yl)-8-(6-amino-9H-purin-9-yl)-3,9,18-trihydroxy-12-sulfanyl-2,4,7,11,13-pentaoxa-3λ^5,12λ^5-diphosphatricyclo[13.2.1.0^6,10]octadecane-3,12-dione]: the shift in melting temperature (ΔTm) at 150 µM stood at 16 °C on AQ STING (G230A-R293Q) and 8.5 °C on WT STING.
For `Nc1ncc2ncn([C@@H]3O[C@@H]4COP(=O)(O)OC5C(O)[C@@H](COP(=O)(O)OC4C3O)C[C@H]5n3cnc4c(=O)[nH]cnc43)c2n1` (stereo partly drawn) [Compound 119, (6R,8R,15R,17R)-8-(2-amino-9H-purin-9-yl)-3,9,12,18-tetrahydroxy-17-(6-oxo-6,9-dihydro-1H-purin-9-yl)-2,4,7,11,13-pentaoxa-3λ^5,12λ^5-diphosphatricyclo[13.2.1.0^6,10]octadecane-3,12-dione] the same measures were 13.7 °C and 5.2 °C.
For `Nc1ncnc2c1ncn2[C@@H]1O[C@@H]2COP(=O)(O)OC3C(O)[C@@H](COP(=O)(O)OC2C1O)C[C@H]3n1cnc2c(=O)[nH]cnc21` (stereo partly drawn) [Compound 120, (6R,8R,15R,17R)-8-(6-amino-9H-purin-9-yl)-3,9,12,18-tetrahydroxy-17-(6-oxo-6,9-dihydro-1H-purin-9-yl)-2,4,7,11,13-pentaoxa-3λ^5,12λ^5-diphosphatricyclo[13.2.1.0^6,10]octadecane-3,12-dione] the same measures were 18.3 °C and 10.6 °C.

What is called ΔTm is the shift of the melting midpoint relative to a reference.
